pIC50: −log10 of the molar value.
Key:
Experiment in all cases: cFMs Autophosphorylation Fluorescence Polarization End Point Assay.
Settings in all cases: pH 7.5; 22 °C
[1] = molecular target: T1, Macrophage colony-stimulating factor 1 receptor [538-678,753-922] (Homo sapiens, UniProt P07333)
T1 construct: 538-678,753-922
T1 sequence (P07333 whole entry): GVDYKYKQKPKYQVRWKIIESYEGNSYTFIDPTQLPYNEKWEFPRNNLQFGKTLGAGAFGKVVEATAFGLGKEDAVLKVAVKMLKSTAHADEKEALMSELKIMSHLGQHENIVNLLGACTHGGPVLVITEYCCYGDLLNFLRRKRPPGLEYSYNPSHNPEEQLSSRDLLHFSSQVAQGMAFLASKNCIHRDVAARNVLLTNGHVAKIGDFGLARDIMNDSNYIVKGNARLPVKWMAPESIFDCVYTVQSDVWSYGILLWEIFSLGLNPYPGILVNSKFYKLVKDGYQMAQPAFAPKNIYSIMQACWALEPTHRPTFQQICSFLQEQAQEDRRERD
Protocol: (§1) Control reactions were run in each plate. Assay buffer was substituted for the compound in positive and negative control wells. The fluorescence polarization was measured after 30 min of incubation. […] The IC50 values reported are the averages of three independent measurements.

[2] = molecular target: T2, Macrophage colony-stimulating factor 1 receptor [538-678,753-922] (Homo sapiens, UniProt P07333); remark: listed apart in the source
T2 construct: 538-678,753-922
T2 sequence (P07333 whole entry): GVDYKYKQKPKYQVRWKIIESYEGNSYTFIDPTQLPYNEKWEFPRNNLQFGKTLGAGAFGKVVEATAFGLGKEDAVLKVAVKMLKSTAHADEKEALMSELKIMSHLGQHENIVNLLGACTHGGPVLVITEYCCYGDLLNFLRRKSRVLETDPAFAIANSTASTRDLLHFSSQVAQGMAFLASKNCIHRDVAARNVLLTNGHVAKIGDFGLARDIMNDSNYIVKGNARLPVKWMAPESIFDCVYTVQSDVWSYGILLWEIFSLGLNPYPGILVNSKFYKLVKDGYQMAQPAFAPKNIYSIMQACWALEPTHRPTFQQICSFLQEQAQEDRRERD
Protocol: as §1

[3] = molecular target: T3, Macrophage colony-stimulating factor 1 receptor [538-972] (UniProt P07333)
T3 construct: 538-972
T3 sequence (P07333 whole entry): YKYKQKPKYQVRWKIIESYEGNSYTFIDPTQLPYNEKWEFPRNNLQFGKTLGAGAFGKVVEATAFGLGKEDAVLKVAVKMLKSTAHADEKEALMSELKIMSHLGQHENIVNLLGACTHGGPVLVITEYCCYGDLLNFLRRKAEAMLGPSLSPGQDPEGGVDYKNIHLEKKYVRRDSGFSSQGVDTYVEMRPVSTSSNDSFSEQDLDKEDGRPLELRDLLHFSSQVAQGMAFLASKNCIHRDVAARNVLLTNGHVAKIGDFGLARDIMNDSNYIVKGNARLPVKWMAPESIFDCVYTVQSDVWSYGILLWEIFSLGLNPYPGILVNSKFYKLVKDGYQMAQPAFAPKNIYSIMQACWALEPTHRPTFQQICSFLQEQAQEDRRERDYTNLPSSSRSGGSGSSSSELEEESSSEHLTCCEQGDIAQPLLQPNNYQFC
Protocol: as §1

## Cc1cc2ncc(-c3ccc(O)c(O)c3)nc2cc1C [2-(3,4-Dihydroxyphenyl)-6,7-dimethylquinoxaline]
[1]
  pIC50: 5.03
[2]
  pIC50: 5.08
[3]
  pIC50: 5.00

## O=Nc1c(C2C(=O)Nc3ccccc32)[nH]c2ccccc12 (configuration not stated) [Indirubin-3 -monoxime]
[1]
  pIC50: 5.38
[2]
  pIC50: 5.35
[3]
  pIC50: 5.32

## CN(C)CCNC(=O)N1CCN(Cc2cc(C(F)(F)F)cc(C(F)(F)F)c2)CC1 [JNJ31117164]
[1]
  pIC50: 5.92
[2]
  pIC50: 5.89
[3]
  pIC50: 5.92

## N#C/C(=C\c1ccc(O)c(O)c1)C(N)=S [alpha-Cyano-(3,4-dihydroxy)thiocinnamide]
[1]
  pIC50: 5.52
[2]
  pIC50: 5.48
[3]
  pIC50: 5.54

Source: BindingDB's records for doi:10.1074/jbc.M608182200 (Johnson & Johnson Pharmaceutical, 2007)
